Tested on: sheep of the Coriedale breed
Assay: Steroid-induced IOP elevation in sheep, tPA injected into the anterior chamber (Example 9)
Type: in vivo
Method: Methods. Lyophilized tPA, obtained as Acetilyse® from Boehringer Ingelheim S. A. (Buenos Aires) containing arginine, was used. Five sheep of the Coriedale breed were selected. Initially all eyes received instillation of 1% prednisolone 3 times/day for 10 days to elevate their IOP from 10 mm Hg to about 23 mm Hg. Then, 0.0001 μg was injected into one of the eyes and its effect was followed for up to 55:00 hrs while the instillation of prednisolone continued in both eyes. The same protocol was implemented for the 0.001 and 0.01 μg amounts (after extended washout) in the contra lateral eyes. Arginine, which is associated with 0.01 ug tPA, was injected alone and had no effect.

Substance: tissue plasminogen activator [tPA]
- effect on IOP (0.0001 μg into the AC, IOP 23.0 mm Hg at 6:00 and 30:00 hrs): had no effect
- IOP (0.001 μg into the AC, 6:00 hr, from 23.1): 18.6 mmHg
- IOP (0.001 μg into the AC, 30:00 hr): 22.3 mm Hg
- IOP (0.01 μg into the AC, 6:00 hrs, baseline 23.4): 14.2 mm Hg
- IOP (0.01 μg into the AC, 30:00 hrs): 19.0 mm Hg
- IOP (0.01 μg into the AC, 48:00 hrs): 20.9 mm Hg
- IOP (0.01 μg into the AC, 55:00 hrs): 22.3 mm Hg
- effect on IOP (single dose of 1 μg of tPA injected intracamerally): reduction in IOP

Source: US20210220450A1, “TREATMENT OF AN IOP CONDITION” (The Research Foundation for The State University of New York, priority 2013, published 2021)
